In the NIST ThermoML archive (doi:10.1016/j.jct.2016.07.008):

Assay: xn = mol fraction of the nth substance listed
Details: Liquid, Vibrating wire viscometry

CC(C)CC(C)(C)C [2,2,4-trimethylpentane] + CCCCO
viscosity [mPa·s]
Details	293.15 K	313.15 K	333.15 K	353.15 K
100 kPa, x2 = 0.3002	0.651	0.4938	0.3855	0.3085
100 kPa, x2 = 0.5003	0.8986	0.6427	0.4739	0.3658
100 kPa, x2 = 0.8	1.777	1.151	0.7766	0.5523
1000 kPa, x2 = 0.3002	0.6579	0.4951	0.3922	0.3131
1000 kPa, x2 = 0.5003	0.9064	0.6458	0.4756	0.3715
1000 kPa, x2 = 0.8	1.805	1.161	0.7891	0.5621
5000 kPa, x2 = 0.3002	0.6912	0.5303	0.4188	0.3362
5000 kPa, x2 = 0.5003	0.9556	0.6742	0.5003	0.3955
5000 kPa, x2 = 0.8	1.837	1.216	0.8182	0.5811
10000 kPa, x2 = 0.3002	0.7318	0.5681	0.4439	0.3574
10000 kPa, x2 = 0.5003	0.9979	0.7086	0.5334	0.4195
10000 kPa, x2 = 0.8	1.949	1.279	0.868	0.6183
20000 kPa, x2 = 0.3002	0.8168	0.6344	0.4973	0.3982
20000 kPa, x2 = 0.5003	1.14	0.8024	0.5894	0.4654
20000 kPa, x2 = 0.8	2.161	1.402	0.9602	0.6708
30000 kPa, x2 = 0.3002	0.9098	0.7073	0.552	0.4475
30000 kPa, x2 = 0.5003	1.274	0.8924	0.6494	0.5151
30000 kPa, x2 = 0.8	2.353	1.54	1.04	0.7334
40000 kPa, x2 = 0.3002	1.004	0.7728	0.6073	0.491
40000 kPa, x2 = 0.5003	1.415	0.9864	0.7134	0.5714
40000 kPa, x2 = 0.8	2.578	1.674	1.132	0.793
50000 kPa, x2 = 0.3002	1.108	0.8419	0.6677	0.5403
50000 kPa, x2 = 0.5003	1.562	1.084	0.7814	0.6195
50000 kPa, x2 = 0.8	2.826	1.825	1.232	0.8609
60000 kPa, x2 = 0.3002	1.215	0.9375	0.7297	0.592
60000 kPa, x2 = 0.5003	1.739	1.186	0.8534	0.679
60000 kPa, x2 = 0.8	3.038	1.972	1.328	0.9278
70000 kPa, x2 = 0.3002	1.324	1.005	0.7944	0.6322
70000 kPa, x2 = 0.5003	1.895	1.292	0.9294	0.7319
70000 kPa, x2 = 0.8	3.308	2.114	1.419	0.9984
80000 kPa, x2 = 0.3002	1.433	1.081	0.857	0.6788
80000 kPa, x2 = 0.5003	2.055	1.402	1.009	0.7953
80000 kPa, x2 = 0.8	3.537	2.283	1.531	1.069
100000 kPa, x2 = 0.3002	1.679	1.235	0.9892	0.7915
100000 kPa, x2 = 0.5003	2.387	1.634	1.181	0.9151
100000 kPa, x2 = 0.8	4.066	2.619	1.735	1.203
120000 kPa, x2 = 0.3002	1.942	1.413	1.133	0.8951
120000 kPa, x2 = 0.5003	2.735	1.882	1.369	1.026
120000 kPa, x2 = 0.8	4.653	2.954	1.973	1.365
140000 kPa, x2 = 0.3002	2.211	1.587	1.279	1.007
140000 kPa, x2 = 0.5003	3.099	2.146	1.573	1.14
140000 kPa, x2 = 0.8	5.322	3.328	2.212	1.526

CCCCO [butan-1-ol] + CC(C)CC(C)(C)C
viscosity [mPa·s], x1 = 1
Details	293.15 K	298.15 K	313.15 K	323.15 K	333.15 K	348.15 K	353.15 K
100 kPa	2.969	2.601	1.797	1.429	1.156	0.8579	0.7903
1000 kPa	3.001	2.622	1.813	1.44	1.172	0.8647	0.7943
5000 kPa	3.108	2.715	1.89	1.491	1.227	0.8956	0.8284
10000 kPa	3.244	2.834	1.967	1.556	1.29	0.9349	0.8637
20000 kPa	3.479	3.079	2.14	1.69	1.389	1.016	0.9473
30000 kPa	3.788	3.333	2.319	1.829	1.504	1.101	1.04
40000 kPa	4.078	3.599	2.48	1.975	1.624	1.189	1.102
50000 kPa	4.401	3.874	2.629	2.125	1.741	1.28	1.21
60000 kPa	4.74	4.16	2.852	2.281	1.867	1.375	1.295
70000 kPa	5.076	4.455	3.089	2.443	2.014	1.473	1.384
80000 kPa	5.438	4.761	3.247	2.61	2.137	1.575	1.473
100000 kPa	6.164	5.404	3.686	2.962	2.384	1.788	1.676
120000 kPa	6.979	6.087	4.192	3.335	2.633	2.015	1.857
140000 kPa	7.843	6.811	4.638	3.682	2.883	2.255	2.037
